Experimental data from patent publication US7943774B2 (priority 2008, dated 2011).
Where two headings read alike, the source gives them in different places.

Columns and labels:
Phytophthora infestans = assay: whole plant or invertebrate; format: in vivo; conditions: in Solanum lycopersicum, 168 h, read-out: efficacy
log P (pH2.3) = format: physicochemical; conditions: for chromatographic logP: reversed-phase HPLC column (C18)
Plasmopara viticola = assay: Plasmopara test (grapevine)/protective; format: in vivo; conditions: 144 h, active compound concentration of 100 ppm, young grapevine plants sprayed, then inoculated, evaluation 6 days after inoculation, 0% = control, 100% = no infection, read-out: efficacy
Protocol: Plasmopara Test (Grapevine)/Protective
After the spray coating has dried on, the plants are inoculated with an aqueous spore suspension of Plasmopara viticola and then remain in an incubation cabin at about 20° C. and 100% relative atmospheric humidity for 1 day. The plants are then placed in a greenhouse at about 21° C. and an atmospheric humidity of about 90% for 4 days. The plants are then moistened and placed in an incubation cabin for 1 day.
Evaluation is carried out 6 days after the inoculation.

[1] = method [b]: LC-MS, acidic range, pH 2.7, 0.1% aqueous formic acid and acetonitrile
[2] = method [b]: LC-MS, acidic range, pH 2.7, 0.1% aqueous formic acid and acetonitrile, HPLC on reversed-phase C 18
[3] = method [c]: LC-MS, neutral range, pH 7.8, 0.001 molar aqueous ammonium bicarbonate solution and acetonitrile, HPLC on reversed-phase C 18

Cc1cc(C(F)(F)F)nn1CC(=O)N1CCC(c2nc(/C=C\c3cccc4ccccc34)cs2)CC1 [Example I-2, 2-[5-Methyl-3-(trifluoromethyl)-1H-pyrazol-1-yl]-1-(4-{4-[(Z)-2-(naphthalen-1-yl)ethenyl]-1,3-thiazol-2-yl}piperidin-1-yl)ethanone]
pest or weed control at 500 ppm (Phytophthora infestans): ≥ 70% | chromatographic logP (log P (pH2.3); [1]): 4.52

Cc1cc(C(F)(F)F)nn1CC(=O)N1CCC(c2nc(/C=C\CC(C)c3ccccc3)cs2)CC1 (centres unmarked) [Example I-3, 2-[5-Methyl-3-(trifluoromethyl)-1H-pyrazol-1-yl]-1-(4-{4-[(1Z)-4-phenylpent-1-en-1-yl]-1,3-thiazol-2-yl}piperidin-1-yl)ethanone]
pest or weed control at 500 ppm (Phytophthora infestans): ≥ 70% | chromatographic logP (log P (pH2.3); [1]): 4.84

Cc1cc(C(F)(F)F)nn1CC(=O)N1CCC(c2nc(/C=C/c3cccc4ccccc34)cs2)CC1 [Example I-27, 2-[5-Methyl-3-(trifluoromethyl)-1H-pyrazol-1-yl]-1-(4-{4-[(E)-2-(naphthalen-1-yl)ethenyl]-1,3-thiazol-2-yl}piperidin-1-yl)ethanone]
pest or weed control at 500 ppm (Phytophthora infestans): ≥ 70% | chromatographic logP (log P (pH2.3); [1]): 4.63

Cc1cc(C(F)(F)F)nn1CC(=O)N1CCC(c2nc(C#Cc3cccc4ccccc34)cs2)CC1 [Example I-50, 2-[5-Methyl-3-(trifluoromethyl)-1H-pyrazol-1-yl]-1-{4-[4-(naphthalen-1-ylethynyl)-1,3-thiazol-2-yl]piperidin-1-yl}ethanone]
pest or weed control at 500 ppm (Phytophthora infestans): ≥ 70% | pest or weed control at 100 ppm (Plasmopara viticola): ≥ 70% | chromatographic logP (log P (pH2.3); [1]): 4.5 | chromatographic logP (log P (pH2.3); method [c]: LC-MS, neutral range, pH 7.8, 0.001 molar aqueous ammonium bicarbonate and acetonitrile): 4.66

Cc1cc(C(F)(F)F)nn1CC(=O)N1CCC(c2nc(C#Cc3cccnc3)cs2)CC1 [Example I-51, 2-[5-Methyl-3-(trifluoromethyl)-1H-pyrazol-1-yl]-1-{4-[4-(pyridin-3-ylethynyl)-1,3-thiazol-2-yl]piperidin-1-yl}ethanone]
pest or weed control at 500 ppm (Phytophthora infestans): ≥ 70% | pest or weed control at 100 ppm (Plasmopara viticola): ≥ 70% | chromatographic logP (log P (pH2.3); [1]): 2.68

Cc1cc(C(F)(F)F)nn1CC(=O)N1CCC(c2nc(C#CCc3ccccc3)cs2)CC1 [Example I-52, 2-[5-Methyl-3-(trifluoromethyl)-1H-pyrazol-1-yl]-1-{4-[4-(3-phenylprop-1-yn-1-yl)-1,3-thiazol-2-yl]piperidin-1-yl}ethanone]
pest or weed control at 500 ppm (Phytophthora infestans): ≥ 70% | chromatographic logP (log P (pH2.3); [1]): 3.88

Cc1cc(C(F)(F)F)nn1CC(=O)N1CCC(c2nc(CCc3ccccc3)cs2)CC1 [Example I-53, 2-[5-Methyl-3-(trifluoromethyl)-1H-pyrazol-1-yl]-1-{4-[4-(2-phenylethyl)-1,3-thiazol-2-yl]piperidin-1-yl}ethanone]
pest or weed control at 500 ppm (Phytophthora infestans): ≥ 70% | pest or weed control at 100 ppm (Plasmopara viticola): ≥ 70% | chromatographic logP (log P (pH2.3); method [a]: HPLC, acidic range, pH 2.3, 0.1% aqueous phosphoric acid and acetonitrile): 3.79

Cc1cc(C(F)(F)F)nn1CC(=O)N1CCC(c2nc(CCCC(C)c3ccccc3)cs2)CC1 (centres unmarked) [Example I-80, 2-[5-Methyl-3-(trifluoromethyl)-1H-pyrazol-1-yl]-1-{4-[4-(4-phenylpentyl)-1,3-thiazol-2-yl]piperidin-1-yl}ethanone]
pest or weed control at 500 ppm (Phytophthora infestans): ≥ 70% | pest or weed control at 100 ppm (Plasmopara viticola): ≥ 70% | chromatographic logP (log P (pH2.3); [1]): 4.77

Cc1cc(C(F)(F)F)nn1CC(=O)N1CCC(c2nc(CCc3cccc4ccccc34)cs2)CC1 [Example I-81, 2-[5-Methyl-3-(trifluoromethyl)-1H-pyrazol-1-yl]-1-(4-{4-[2-(naphthalen-1-yl)ethyl]-1,3-thiazol-2-yl}piperidin-1-yl)ethanone]
pest or weed control at 500 ppm (Phytophthora infestans): ≥ 70% | pest or weed control at 100 ppm (Plasmopara viticola): ≥ 70% | chromatographic logP (log P (pH2.3); [1]): 4.37

Cc1cc(C(F)(F)F)nn1CC(=S)N1CCC(c2nc(/C=C/c3ccccc3)cs2)CC1 [Example I-93, 2-[5-Methyl-3-(trifluoromethyl)-1H-pyrazol-1-yl]-1-(4-{4-[(E)-2-phenylethenyl]-1,3-thiazol-2-yl}piperidin-1-yl)ethanethione]
pest or weed control at 500 ppm (Phytophthora infestans): ≥ 70% | pest or weed control at 100 ppm (Plasmopara viticola): ≥ 70% | chromatographic logP (log P (pH2.3); [1]): 4.65

Cc1cc(C(F)(F)F)nn1CC(=O)N1CCC(c2nc(C#C[Si](C)(C)C)cs2)CC1 [Example I-98, 2-[5-Methyl-3-(trifluoromethyl)-1H-pyrazol-1-yl]-1-(4-{4-[(trimethylsilyl)ethynyl]-1,3-thiazol-2-yl}piperidin-1-yl)ethanone]
pest or weed control at 500 ppm (Phytophthora infestans): ≥ 70% | pest or weed control at 100 ppm (Plasmopara viticola): ≥ 70% | chromatographic logP (log P (pH2.3); [1]): 4.28

COc1ccc(C#Cc2csc(C3CCN(C(=O)Cn4nc(C(F)(F)F)cc4C)CC3)n2)cc1 [Example I-100, 1-(4-{4-[(4-Methoxyphenyl)ethynyl]-1,3-thiazol-2-yl}piperidin-1-yl)-2-[5-methyl-3-(trifluoromethyl)-1H-pyrazol-1-yl]ethanone]
pest or weed control at 500 ppm (Phytophthora infestans): ≥ 70% | pest or weed control at 100 ppm (Plasmopara viticola): ≥ 70% | chromatographic logP (log P (pH2.3); [1]): 3.79

COc1ccccc1C#Cc1csc(C2CCN(C(=O)Cn3nc(C(F)(F)F)cc3C)CC2)n1 [Example I-103, 1-(4-{4-[(2-Methoxyphenyl)ethynyl]-1,3-thiazol-2-yl}piperidin-1-yl)-2-[5-methyl-3-(trifluoromethyl)-1H-pyrazol-1-yl]ethanone]
pest or weed control at 500 ppm (Phytophthora infestans): ≥ 70% | pest or weed control at 100 ppm (Plasmopara viticola): ≥ 70% | chromatographic logP (log P (pH2.3); [1]): 3.67

O=C(Cc1cc(Cl)ccc1Cl)N1CCC(c2nc(C#Cc3ccccc3Br)cs2)CC1 [Example I-225]
log p (log P (pH2.3); [2]): 4.91^[b]

O=C(Cc1cc(Cl)ccc1Cl)N1CCC(c2nc(C#Cc3c(F)cccc3F)cs2)CC1 [Example I-226]
log p (log P (pH2.3); [2]): 4.52^[b]

Cc1cccnc1C#Cc1csc(C2CCN(C(=O)Cc3cc(Cl)ccc3Cl)CC2)n1 [Example I-228]
log p (log P (pH2.3); [2]): 3.35^[b] | log p (log P (pH2.3); [3]): 3.55^[c]

Cc1noc(C)c1C#Cc1csc(C2CCN(C(=O)Cc3cc(Cl)ccc3Cl)CC2)n1 [Example I-229]
log p (log P (pH2.3); [2]): 3.86^[b]

Cc1ccc(C)c(CC(=O)N2CCC(c3nc(C#Cc4ccccc4C)cs3)CC2)c1 [Example I-230]
log p (log P (pH2.3); [2]): 4.75^[b] | log p (log P (pH2.3); [3]): 4.78^[c];

Cc1ccc(C)c(CC(=O)N2CCC(c3nc(C#Cc4ccccc4Br)cs3)CC2)c1 [Example I-231]
log p (log P (pH2.3); [2]): 4.77^[b] | log p (log P (pH2.3); [3]): 4.8^[c];

Cc1ccc(C)c(CC(=O)N2CCC(c3nc(C#Cc4c(F)cccc4F)cs3)CC2)c1 [Example I-232]
log p (log P (pH2.3); [2]): 4.36^[b] | log p (log P (pH2.3); [3]): 4.39^[c];

Cc1ccc(C)c(CC(=O)N2CCC(c3nc(C#Cc4c(C)noc4C)cs3)CC2)c1 [Example I-235]
log p (log P (pH2.3); [2]): 3.67^[b] | log p (log P (pH2.3); [3]): 3.71^[c];

Cc1cccnc1/C=C\c1csc(C2CCN(C(=O)Cn3nc(C(F)(F)F)cc3C(F)(F)F)CC2)n1 [Example I-236]
log p (log P (pH2.3); [2]): 2.46^[b]

Cc1ccc(C)c(CC(=O)N2CCC(c3nc(/C=C\c4ccccc4C)cs3)CC2)c1 [Example I-237]
log p (log P (pH2.3); [2]): 4.86^[b] | log p (log P (pH2.3); [3]): 4.95^[c];

C#Cc1csc(C2CCN(C(=O)Cc3cc(C)ccc3C)CC2)n1 [Example I-238]
log p (log P (pH2.3); [2]): 2.93^[b]; | log p (log P (pH2.3); [3]): 2.95^[c]

C#Cc1csc(C2CCN(C(=O)Cn3nc(C(F)F)cc3C(F)F)CC2)n1 [Example I-239]
log p (log P (pH2.3); [2]): 2.45^[b]

Brc1sc(C2CCNCC2)nc1CCc1ccccc1 [II-3, 4-[5-Bromo-4-(2-phenylethyl)-1,3-thiazol-2-yl]piperidine]
log p (log P (pH2.3); pH 2.3, pH2.3, read-out: log P): 1.72
